US20230233569A1 (Revolution Medicines, Inc., priority 2020, published 2023)
Where two headings read alike, the source gives them in different places.

Assays:
Test in all cases: Ras-Raf disruption / FRET / MOA assay (BRAF RBD)
Assay type in all cases: biochemical
KRAS G12D = KRAS G12D (Homo sapiens, UniProt P01116+P62937, G12D); settings: with Cyclophilin A
In short: (§1)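 TR-FRET in 25 mM HEPES pH 7.3, 100 mM NaCl, 5 mM MgCl2, 0.1% BSA, 0.002% Tween20 with 25 μM Cyclophilin A, 12.5 nM His6-Ras-GMPPNP, 50 nM GST-BRAF RBD; compound 10-point 3-fold series from 30 μM. After 3 h at 25 °C, Eu anti-His/APC anti-GST added for 1.5 h; IC50 from ratio decrease versus DMSO.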

KRAS G12S = KRAS G12S (Homo sapiens, UniProt P01116+P62937, G12S); settings: with Cyclophilin A
In short: as §1

KRAS G12V = KRAS G12V (Homo sapiens, UniProt P01116+P62937, G12V); settings: with Cyclophilin A
In short: as §1

KRAS G13C = KRAS G13C (Homo sapiens, UniProt P01116+P62937, G13C); settings: with Cyclophilin A
In short: as §1

KRAS G13D = KRAS G13D (Homo sapiens, UniProt P01116+P62937, G13D); settings: with Cyclophilin A
In short: as §1

KRAS Q61H = KRAS Q61H (Homo sapiens, UniProt P01116+P62937, Q61H)
In short: as §1

KRAS WT = KRAS WT (Homo sapiens, UniProt P01116+P62937); settings: with Cyclophilin A
In short: as §1

NRAS G12C = NRAS G12C (Homo sapiens, UniProt P01111+P62937, G12C)
In short: as §1

NRAS Q61K = NRAS Q61K (Homo sapiens, UniProt P01111+P62937, Q61K)
In short: as §1

NRAS Q61R = NRAS Q61R (Homo sapiens, UniProt P01111+P62937, Q61R)
In short: as §1

NRAS WT = NRAS WT (Homo sapiens, UniProt P01111+P62937)
In short: as §1

KRAS G12C = KRAS G12C (Homo sapiens, UniProt P01116+P62937, G12C); settings: with Cyclophilin A
In short: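 His6-K-Ras G12C-GMPPNP (12.5 nM), GST-BRAF RBD (50 nM) and tagless Cyclophilin A (25 μM) incubated 3 h at 25 °C with compound (10-point 3-fold series from 30 μM), pH 7.3 HEPES buffer. Anti-His Eu/anti-GST APC added for 1.5 h; decreased TR-FRET ratio vs DMSO gives IC50.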

[1] = KRAS G12D FRET data IC50, Ras-Raf disruption
[2] = KRAS G12S FRET data IC50, Ras-Raf disruption
[3] = KRAS G12V FRET data IC50, Ras-Raf disruption
[4] = KRAS G13C FRET data IC50, Ras-Raf disruption
[5] = KRAS G13D FRET data IC50, Ras-Raf disruption
[6] = KRAS WT FRET data IC50, Ras-Raf disruption
[7] = NRAS G12C FRET data IC50, NRAS G12C
[8] = KRAS G12C FRET data IC50, Ras-Raf disruption
[9] = Ras-Raf disruption, read-out: KRAS G12D FRET data IC50
[10] = Ras-Raf disruption, read-out: KRAS G12S FRET data IC50
[11] = Ras-Raf disruption, read-out: KRAS G12V FRET data IC50
[12] = Ras-Raf disruption, read-out: KRAS G13C FRET data IC50
[13] = Ras-Raf disruption, read-out: KRAS G13D FRET data IC50
[14] = KRAS Q61H, read-out: KRAS Q61H FRET data IC50
[15] = Ras-Raf disruption, read-out: KRAS WT FRET data IC50
[16] = NRAS G12C, read-out: NRAS G12C FRET data IC50
[17] = NRAS Q61K, read-out: NRAS Q61K FRET data IC50
[18] = NRAS Q61R, read-out: NRAS Q61R FRET data IC50
[19] = NRAS WT, read-out: NRAS WT FRET data IC50
[20] = Ras-Raf disruption, read-out: KRAS G12C FRET data IC50

Sequence of NRAS WT (P01111 whole entry): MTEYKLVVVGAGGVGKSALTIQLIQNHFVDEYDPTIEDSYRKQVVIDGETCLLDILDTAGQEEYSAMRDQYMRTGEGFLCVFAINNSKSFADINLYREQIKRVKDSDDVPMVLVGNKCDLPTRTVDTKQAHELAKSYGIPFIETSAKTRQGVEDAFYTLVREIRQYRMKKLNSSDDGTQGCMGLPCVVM
Sequence of NRAS WT (P62937 whole entry): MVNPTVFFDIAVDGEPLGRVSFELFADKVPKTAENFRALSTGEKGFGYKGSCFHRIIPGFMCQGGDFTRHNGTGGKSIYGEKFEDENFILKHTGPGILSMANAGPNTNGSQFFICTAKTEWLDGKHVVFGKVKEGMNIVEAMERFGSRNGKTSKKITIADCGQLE
Sequence of KRAS WT (P01116 1-169 isoform P01116-2 limits assumed): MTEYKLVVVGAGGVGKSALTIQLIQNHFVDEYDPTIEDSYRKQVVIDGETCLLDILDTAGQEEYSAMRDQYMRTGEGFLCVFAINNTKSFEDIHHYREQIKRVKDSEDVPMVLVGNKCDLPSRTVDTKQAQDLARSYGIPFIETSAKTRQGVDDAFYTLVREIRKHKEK
Sequence of KRAS WT (P62937 whole entry): as the sequence (P62937 whole entry) above
Sequence of KRAS G12V (P01116 1-169 isoform P01116-2 G12V limits assumed): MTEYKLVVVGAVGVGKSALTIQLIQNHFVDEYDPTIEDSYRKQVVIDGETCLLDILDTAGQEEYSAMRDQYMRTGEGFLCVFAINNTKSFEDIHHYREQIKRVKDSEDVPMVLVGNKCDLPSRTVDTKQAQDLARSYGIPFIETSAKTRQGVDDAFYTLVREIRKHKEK
Sequence of KRAS G12V (P62937 whole entry): as the sequence (P62937 whole entry) above
Sequence of NRAS Q61R (P01111 whole entry Q61R): as the sequence (P01111 whole entry) above, with Q61R counted along it
Sequence of NRAS Q61R (P62937 whole entry): as the sequence (P62937 whole entry) above
Sequence of KRAS Q61H (P01116 1-169 isoform P01116-2 Q61H limits assumed): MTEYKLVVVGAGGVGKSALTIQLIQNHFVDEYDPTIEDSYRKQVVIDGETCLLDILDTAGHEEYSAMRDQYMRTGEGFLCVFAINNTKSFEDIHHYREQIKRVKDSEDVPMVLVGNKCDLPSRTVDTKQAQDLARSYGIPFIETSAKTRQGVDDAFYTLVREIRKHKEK
Sequence of KRAS Q61H (P62937 whole entry): as the sequence (P62937 whole entry) above
Sequence of NRAS G12C (P01111 whole entry G12C): as the sequence (P01111 whole entry) above, with G12C counted along it
Sequence of NRAS G12C (P62937 whole entry): as the sequence (P62937 whole entry) above
Sequence of KRAS G13D (P01116 1-169 isoform P01116-2 G13D limits assumed): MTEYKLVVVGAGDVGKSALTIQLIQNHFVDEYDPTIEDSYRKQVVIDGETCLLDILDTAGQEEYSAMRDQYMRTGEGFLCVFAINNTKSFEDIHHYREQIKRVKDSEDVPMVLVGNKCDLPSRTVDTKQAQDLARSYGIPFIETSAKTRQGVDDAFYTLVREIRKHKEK
Sequence of KRAS G13D (P62937 whole entry): as the sequence (P62937 whole entry) above
Sequence of NRAS Q61K (P01111 whole entry Q61K): as the sequence (P01111 whole entry) above, with Q61K counted along it
Sequence of NRAS Q61K (P62937 whole entry): as the sequence (P62937 whole entry) above
Sequence of KRAS G12S (P01116 1-169 isoform P01116-2 G12S limits assumed): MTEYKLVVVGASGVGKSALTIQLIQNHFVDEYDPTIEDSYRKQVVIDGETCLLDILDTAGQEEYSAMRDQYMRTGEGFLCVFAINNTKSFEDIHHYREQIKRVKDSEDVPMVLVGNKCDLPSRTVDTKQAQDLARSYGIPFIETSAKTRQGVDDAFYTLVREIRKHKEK
Sequence of KRAS G12S (P62937 whole entry): as the sequence (P62937 whole entry) above
Sequence of KRAS G12C (P01116 1-169 isoform P01116-2 G12C limits assumed): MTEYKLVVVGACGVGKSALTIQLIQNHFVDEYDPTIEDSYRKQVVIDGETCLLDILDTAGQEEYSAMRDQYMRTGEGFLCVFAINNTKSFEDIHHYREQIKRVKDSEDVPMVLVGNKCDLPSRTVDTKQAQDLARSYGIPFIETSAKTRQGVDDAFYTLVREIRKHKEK
Sequence of KRAS G12C (P62937 whole entry): as the sequence (P62937 whole entry) above
Sequence of KRAS G12D (P01116 1-169 isoform P01116-2 G12D limits assumed): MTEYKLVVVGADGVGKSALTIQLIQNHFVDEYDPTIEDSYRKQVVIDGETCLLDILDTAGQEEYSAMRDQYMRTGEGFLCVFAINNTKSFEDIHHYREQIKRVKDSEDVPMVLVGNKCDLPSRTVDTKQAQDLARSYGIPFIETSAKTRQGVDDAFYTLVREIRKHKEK
Sequence of KRAS G12D (P62937 whole entry): as the sequence (P62937 whole entry) above
Sequence of KRAS G13C (P01116 1-169 isoform P01116-2 G13C limits assumed): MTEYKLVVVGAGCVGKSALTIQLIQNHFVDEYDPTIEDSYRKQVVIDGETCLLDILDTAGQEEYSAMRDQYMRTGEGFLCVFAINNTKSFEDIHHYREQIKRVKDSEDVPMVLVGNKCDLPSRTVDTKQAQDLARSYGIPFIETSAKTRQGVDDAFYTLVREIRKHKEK
Sequence of KRAS G13C (P62937 whole entry): as the sequence (P62937 whole entry) above

Row | SMILES | IC50 (KRAS G12D; [1]) | IC50 (KRAS G12S; [2]) | IC50 (KRAS G12V; [3]) | IC50 (KRAS G13C; [4]) | IC50 (KRAS G13D; [5]) | IC50 (KRAS Q61H) | IC50 (KRAS WT; [6]) | IC50 (NRAS G12C; [7]) | IC50 (NRAS Q61K) | IC50 (NRAS Q61R) | IC50 (NRAS WT) | IC50 (KRAS G12C; [8]) | IC50 (KRAS G12D; [9]) | IC50 (KRAS G12S; [10]) | IC50 (KRAS G12V; [11]) | IC50 (KRAS G13C; [12]) | IC50 (KRAS G13D; [13]) | IC50 (KRAS Q61H; [14]) | IC50 (KRAS WT; [15]) | IC50 (NRAS G12C; [16]) | also measured
1 | CCn1c(-c2cccnc2[C@H](C)OC)c2c3cc(ccc31)-c1cc(cc(C(F)F)c1)C[C@H](NC(=O)[C@H](C1CCCC1)N(C)C(=O)CN(C)C(=O)[C@@H]1N[C@@H]1C1CC1)C(=O)N1CCC[C@H](N1)C(=O)OCC(C)(C)C2 [Example 320] | 1 to 10 µM | 1 to 10 µM | 1 to 10 µM | 0.1 to 1 µM | 1 to 10 µM | 0.1 to 1 µM | 1 to 10 µM | 0.1 to 1 µM | 1 to 10 µM | 1 to 10 µM | 1 to 10 µM | 0.1 to 1 µM |  |  |  |  |  |  |  |  | 
2 | CCn1c(-c2cc(N3CCN(C)CC3)cnc2[C@H](C)OC)c2c3cc(ccc31)-c1cc(O)cc(c1)C[C@H](NC(=O)[C@H](C1CCCC1)N(C)C(=O)CN(C)C(=O)[C@@H]1N[C@@H]1C1CC1)C(=O)N1CCC[C@H](N1)C(=O)OCC(C)(C)C2 [Example 325] | < 0.01 µM | < 0.01 µM | < 0.01 µM | < 0.01 µM | 0.01 to 0.1 µM | < 0.01 µM | < 0.01 µM | < 0.01 µM | 0.01 to 0.1 µM | 0.01 to 0.1 µM | < 0.01 µM | < 0.01 µM |  |  |  |  |  |  |  |  | 
3 | CCn1c(-c2cccnc2[C@H](C)OC)c2c3cc(ccc31)-c1cc(O)cc(c1)C[C@H](NC(=O)[C@H](C1CCCC1)N(C)C(=O)[C@@H](C)N(C)C(=O)[C@@H]1N[C@@H]1C1CC1)C(=O)N1CCC[C@H](N1)C(=O)OCC(C)(C)C2 [Example 327] | 1 to 10 µM | > 10 µM | > 10 µM | 1 to 10 µM | > 10 µM | 1 to 10 µM | 1 to 10 µM | 1 to 10 µM | > 10 µM | > 10 µM | > 10 µM | 1 to 10 µM |  |  |  |  |  |  |  |  | 
4 | CCn1c(-c2cccnc2[C@H](C)OC)c2c3cc(ccc31)-c1cc(O)cc(c1)C[C@H](NC(=O)[C@H](C1CCCC1)N(C)C(=O)[C@H](C)N(C)C(=O)[C@@H]1N[C@@H]1C1CC1)C(=O)N1CCC[C@H](N1)C(=O)OCC(C)(C)C2 [Example 328] | 0.1 to 1 µM | 0.01 to 0.1 µM | 0.01 to 0.1 µM | 0.01 to 0.1 µM | 0.1 to 1 µM | 0.01 to 0.1 µM | 0.01 to 0.1 µM | 0.01 to 0.1 µM | 0.1 to 1 µM | 0.1 to 1 µM | 0.01 to 0.1 µM | 0.01 to 0.1 µM |  |  |  |  |  |  |  |  | 
5 | CCOC(=O)[C@H]1O[C@@H]1C(=O)N1CC[C@H](C(=O)N(C)[C@H](C(=O)N[C@H]2Cc3cc(O)cc(c3)-c3ccc4c(c3)c(c(-c3cccnc3[C@H](C)OC)n4CC)CC(C)(C)COC(=O)[C@@H]3CCCN(N3)C2=O)C(C)C)C1 [Example 329] |  |  |  |  |  |  |  |  |  |  |  |  | 0.1 to 1 µM | 0.01 to 0.1 µM | 0.01 to 0.1 µM | < 0.01 µM | 0.01 to 0.1 µM | 0.01 to 0.1 µM | 0.01 to 0.1 µM | < 0.01 µM | IC50 (NRAS Q61K; [17]): 0.01 to 0.1 µM; IC50 (NRAS Q61R; [18]): 0.01 to 0.1 µM; IC50 (NRAS WT; [19]): 0.01 to 0.1 µM; IC50 (KRAS G12C; [20]): < 0.01 µM
6 | CCn1c(-c2cccnc2[C@H](C)OC)c2c3cc(ccc31)-c1cc(O)cc(c1)C[C@H](NC(=O)[C@H](C(C)C)N(C)C(=O)[C@H]1CCN(C(=O)C3CO3)C1)C(=O)N1CCC[C@H](N1)C(=O)OCC(C)(C)C2 (stereo partly drawn) [Example 330] |  |  |  |  |  |  |  |  |  |  |  |  | 0.01 to 0.1 µM | 0.01 to 0.1 µM | 0.01 to 0.1 µM | < 0.01 µM | 0.01 to 0.1 µM | 0.01 to 0.1 µM | 0.01 to 0.1 µM | < 0.01 µM | IC50 (NRAS Q61K; [17]): 0.1 to 1 µM; IC50 (NRAS Q61R; [18]): 0.1 to 1 µM; IC50 (NRAS WT; [19]): 0.01 to 0.1 µM; IC50 (KRAS G12C; [20]): < 0.01 µM
7 | CCn1c(-c2cccnc2[C@H](C)OC)c2c3cc(ccc31)-c1cc(O)cc(c1)C[C@H](NC(=O)[C@H](C(C)C)N(C)C(=O)[C@H]1CCN(C(=O)C3OC3c3ccccc3)C1)C(=O)N1CCC[C@H](N1)C(=O)OCC(C)(C)C2 (stereo partly drawn) [Example 331] |  |  |  |  |  |  |  |  |  |  |  |  | 0.1 to 1 µM | 0.01 to 0.1 µM | 0.01 to 0.1 µM | 0.01 to 0.1 µM | 0.1 to 1 µM | 0.01 to 0.1 µM | 0.01 to 0.1 µM | 0.01 to 0.1 µM | IC50 (NRAS Q61K; [17]): 0.1 to 1 µM; IC50 (NRAS Q61R; [18]): 0.1 to 1 µM; IC50 (NRAS WT; [19]): 0.01 to 0.1 µM; IC50 (KRAS G12C; [20]): < 0.01 µM
8 | CCn1c(-c2cccnc2[C@H](C)OC)c2c3cc(ccc31)-c1cc(O)cc(c1)C[C@H](NC(=O)[C@H](C(C)C)N(C)C(=O)[C@H]1CCN(C(=O)C3(C)CO3)C1)C(=O)N1CCC[C@H](N1)C(=O)OCC(C)(C)C2 (stereo partly drawn) [Example 332] |  |  |  |  |  |  |  |  |  |  |  |  | 0.1 to 1 µM | 0.01 to 0.1 µM | 0.01 to 0.1 µM | 0.01 to 0.1 µM | 0.01 to 0.1 µM | 0.01 to 0.1 µM | 0.01 to 0.1 µM | 0.01 to 0.1 µM | IC50 (NRAS Q61K; [17]): 0.1 to 1 µM; IC50 (NRAS Q61R; [18]): 0.1 to 1 µM; IC50 (NRAS WT; [19]): 0.01 to 0.1 µM; IC50 (KRAS G12C; [20]): 0.01 to 0.1 µM
